Source: patent US20100186098A1, “TRANSGENIC ANIMAL MODELS OF PARKINSON'S DISEASE” (CORNELL UNIVERSITY, priority 2007, published 2010)

What was measured:
Type in all cases: in vivo, mouse
Conditions in all cases: intraperitoneal; L-dopa 2 and 20 mg/kg with benserazide, tested 40 minutes after injection; apomorphine 10 mg/kg, tested 5 minutes after
hR1441G LRRK2 mice [1] = assay: Open field test, pharmacological rescue
Procedure: (§1) hR1441G LRRK2 mice and WT littermates were kept in a 12:12 hour light/dark cycle in a temperature and humidity controlled room. All behavioral tests were conducted in the dark phase after two hours of the light/dark switch. In home cage activity test, hR1441G LRRK2 mice and wild type littermates were video taped in home cage for spontaneous ambulatory activity without any disturbance. In cylinder test, hR1441G LRRK2 mice were individually transferred into a 12 cm diameter cylinder and video taped with a reflective mirror for 5 minutes. Vertical rearing and horizontal limb steps were counted. In open field test, mice were transferred into a 45 cm×45 cm box for 10 minutes, video taped and analyzed by Ethovision, 3.0 from Noldus. The locomotor activity was measured by total distance and the number of tiles that the mice traveled.
(§2) To address whether the loss of movement in hR1441G LRRK2 mice originated from a defect in the dopaminergic system, a pharmacological approach was applied. hR1441G LRRK2 mice and wild type littermates were injected with saline control or methyl L-dopa hydrochloride (Sigma, St. Louis, USA) in 0.9% NaCl with benserazide 6.5 mg/kg (Sigma). Two dosages of methyl L-dopa hydrochloride (2 mg/kg and 20 mg/kg) were tested. 0.3 ml of intraperitoneal injections was administered to each animal. Behavioral testing were performed 40 minutes after the injections. […]

hR1441G LRRK2 mice [2] = assay: Home cage activity test, pharmacological rescue
Procedure: as §1, §2

[3] = system: hR1441G LRRK2 BAC mice (TG); assay: Cylinder test (rearing), pharmacological rescue
Procedure: FIGS. 9A-9B illustrate robust locomotor deficit in hR1441G LRRK2 BAC mice was rescued by L-Dopa and apomorphine. Wild type littermates (WT) and hR1441G LRRK2 BAC mice (TG) were tested for 3 min in the cylinder test. Rearing was counted as an indication of motor activity. (9A) An age dependent decline in rearing was detected. At 3, 6 and 10 months of age, WT mice reared an average 50.4±SE2.13, 51.4±SE1.28, 50.2.4±SE2.13 times, while TG mice reared 49.4±SE2.13, […] and zero times respectively. At 6 and 10 months of age, TG mice had significant reductions (P<0.005, P<0.001 respectively). (9B) This robust deficit in TG mice was rescued by 20 mg/kg L-Dopa with […] Benseramide. In saline injection controls, WT and TG mice reared 50.4±SE2.48 and 0.8±SE0.37 in 3 minutes, whereas in L-dopa injection, WT and TG mice reared 47.2±SE1.65 and 28.4±SE1.43.
hR1441G LRRK2 mice and WT littermates were kept in a 12:12 hour light/dark cycle in a temperature and humidity controlled room. All behavioral tests were conducted in the dark phase after two hours of the light/dark switch. […] Vertical rearing and horizontal limb steps were counted. In open field test, mice were transferred into a 45 cm×45 cm box for 10 minutes, video taped and analyzed by Ethovision, 3.0 from Noldus. The locomotor activity was measured by total distance and the number of tiles that the mice traveled. […]

CN1CCc2cccc3c2[C@H]1Cc1ccc(O)c(O)c1-3 [apomorphine]
significantly rescued: Rescue from motor deficits in the open field test (hR1441G LRRK2 mice [1]) | Rescue from motor deficits in home cage activities (hR1441G LRRK2 mice [2]) | Rescue from motor deficits in the cylinder test [3]
